Laboratory results reported in patent US9499502B2, “5-substituted iminothiazines and their mono- and dioxides as BACE inhibitors, compositions, and their use” (Merck Sharp & Dohme Corp., priority 2011, dated 2016).
Read-outs that look alike come from different tables or passages of the source.

Key:
[1] = target: purified human autoBACE-2 (Homo sapiens (Human), UniProt Q9Y5Z0); test: BACE-2 Assay (BACE-HTRF assay); format: biochemical; conditions: for Ki: Ki calculated from IC50 using the Cheng-Prusoff equation, read-out: BACE2 Ki; for inhibition at 10 µM: read-out: inhibition of BACE2 at 10 μM
Chain of purified human autoBACE-2 (Q9Y5Z0 63-473): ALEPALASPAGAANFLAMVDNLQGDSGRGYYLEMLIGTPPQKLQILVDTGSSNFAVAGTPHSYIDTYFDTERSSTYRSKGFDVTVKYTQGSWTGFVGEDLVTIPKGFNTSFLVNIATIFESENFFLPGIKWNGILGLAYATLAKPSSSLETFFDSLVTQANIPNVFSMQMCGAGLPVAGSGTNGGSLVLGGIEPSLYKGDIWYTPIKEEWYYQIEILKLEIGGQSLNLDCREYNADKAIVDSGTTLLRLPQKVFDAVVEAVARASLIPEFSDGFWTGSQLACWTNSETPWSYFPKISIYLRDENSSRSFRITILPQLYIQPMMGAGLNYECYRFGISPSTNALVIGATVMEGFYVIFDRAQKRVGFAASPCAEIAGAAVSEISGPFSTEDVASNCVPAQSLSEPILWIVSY
Experimental: Inhibitor IC50s at purified human autoBACE-2 are determined in a time-resolved endpoint proteolysis assay that measures hydrolysis of the QSY7-[…]-Eu-amide FRET peptide substrate (BACE-HTRF assay). […] DMSO is present at 5% final concentration in the assay. Following laser excitation of sample wells at 320 nm, the fluorescence signal at 620 nm is collected for 400 ms following a 50 μs delay on a RUBYstar HTRF plate reader (BMG Labtechnologies). Raw RFU data is normalized to maximum (1.0 nM BACE/DMSO) and minimum (no enzyme/DMSO) RFU values. […] The Ki values are calculated from the IC50 using the Cheng-Prusoff equation.

[2] = target: soluble human BACE1 catalytic domain (Homo sapiens (Human), UniProt P56817); test: BACE1 HTRF FRET Assay; conditions: for inhibition at 10 µM: read-out: BACE1 inhibition, % Inh. at 10 μM, at 10 μM
Chain of soluble human BACE1 catalytic domain (P56817 75-416): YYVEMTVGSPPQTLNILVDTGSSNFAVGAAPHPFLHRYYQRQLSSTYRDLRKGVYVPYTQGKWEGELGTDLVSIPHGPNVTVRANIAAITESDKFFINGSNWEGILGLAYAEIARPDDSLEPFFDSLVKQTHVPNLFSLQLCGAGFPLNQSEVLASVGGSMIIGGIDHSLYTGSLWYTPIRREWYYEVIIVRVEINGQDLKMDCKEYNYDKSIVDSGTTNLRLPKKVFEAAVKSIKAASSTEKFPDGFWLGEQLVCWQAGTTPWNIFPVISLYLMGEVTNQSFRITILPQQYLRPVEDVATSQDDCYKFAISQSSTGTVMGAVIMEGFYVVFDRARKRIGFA

Ki [1] [nM]	Ki ([2]; read-out: BACE1 Ki) [nM]	Compound	further results
9	4.7	C[C@]1(CC(F)(F)F)C(=N)N[C@](C)(c2sc(-c3cccc(-c4nnco4)c3)cc2F)CS1(=O)=O [Example 27bk-a]	
9	223	COc1cccc(-c2cc(F)c([C@]3(C)CS(=O)(=O)[C@@](C)(CC(F)(F)F)C(=N)N3)s2)c1 [Example 27bl-a]	
7	35	CC1(CC(F)(F)F)C(=N)N[C@](C)(c2sc(-c3ccc(F)c(C#N)c3)cc2F)CS1(=O)=O (some centres unmarked) [Example 27bm-a]	
10	58.5	C[C@@]1(c2sc(-c3cccc(C#N)c3)cc2F)CS(=O)(=O)[C@@](C)(c2cccc(F)c2)C(=N)N1 [Example 27br-a]	
9	68.3	C[C@@]1(c2sc(-c3cccc(C#N)c3)cc2F)CS(=O)(=O)[C@@](C)(c2ccccc2F)C(=N)N1 [Example 27bs-a]	
≤ 10	18	COc1cccc2cc(-c3cc(Cl)c([C@]4(C)CS(=O)(=O)[C@@](C)(CC5CCOCC5)C(=N)N4)s3)[nH]c12 [Example 27bx]	
≤ 10	74.5	CC1(C)C(=N)N[C@](C)(c2sc(-c3cccc(C(F)(F)F)c3)cc2Cl)CS1(=O)=O [Example 27e]	
≤ 10	92.2	CC1(C)C(=N)N[C@](C)(c2sc(-c3cncc(Cl)c3)cc2Cl)CS1(=O)=O [Example 27l]	
≤ 10	64.9	CC1(C)C(=N)N[C@](C)(c2sc(-c3cc(Cl)cc(C#N)c3)cc2Cl)CS1(=O)=O [Example 27s]	
≤ 10	49.2	CC1(C)C(=N)N[C@](C)(c2sc(-c3cccc(-n4nccn4)c3)cc2Cl)CS1(=O)=O [Example 27u]	
517		COc1ccccc1Nc1ccc(F)c(C2(C)CS(=O)(=O)C(C)(C)C(=N)N2)n1 (centres unmarked) [Example 30a]	Ki ([2]; BACE1 Ki (nM)): 5280 nM
5	22	CC1(C)C(=N)N[C@](C)(c2cc(Nc3noc4cc(F)cnc34)ccc2F)CS1(=O)=O [Example 30b]	
		Cc1nc2cc(CC3(C)C(=N)N[C@](C)(c4cc(F)ccc4F)CS3(=O)=O)ccc2s1 (some centres unmarked) [Example 32-a]	inhibition at 10 µM [1]: 1 to 24%; BACE1 inhibition, % Inh. at 10 μM ([2]; at 10 μM): 0% Inh at 10 μM
		COc1cccc([C@]2(C)C(=N)N[C@](C)(c3cc(F)ccc3F)CS2(=O)=O)c1 [Example 32e-b]	inhibition at 10 µM [1]: 1 to 24%; inhibition at 10 µM [2]: 22%
145	381	C[C@@]1(c2ccc(F)cc2F)CS(=O)(=O)[C@@](C)(c2cccc(Br)c2)C(=N)N1 [Example 32g-a]	
126	362	C[C@@]1(c2ccc(F)cc2F)CS(=O)(=O)[C@@](C)(c2cccc(C(F)(F)F)c2)C(=N)N1 [Example 32h-a]	
		C[C@@]1(c2cccc(OCc3ccccc3)c2)C(=N)N[C@](C)(c2cc(F)ccc2F)CS1(=O)=O [Example 34d-b]	inhibition at 10 µM [1]: 10%; inhibition at 10 µM [2]: 16%
1400	6080	CC1(C)C(=N)N[C@](C)(c2sc(N3Cc4cc(F)ccc4C3=O)cc2Cl)CS1(=O)=O [Example 35a]	
< 200		CC1(C)C(=N)N[C@](C)(c2cc(-c3cccc(C#N)c3)ccc2F)CS1(=O)=O [compound 10]	inhibition at 1 µM ([2]; read-out: BACE1 % Inh. at 1 μM, at 1 μM): 36%
